# Measurements as given in patent US20240033283A1, “FUNCTIONALIZED AND CROSSLINKED POLYMERS” (PMIDG, LLC, priority 2020, published 2024).
# Where a name gives a salt, the structure may show the parent alone.
# Assay: Lidocaine release from gels (dialysis tubing)
# Assay type: physicochemical
# Details: PBS, 37° C.
# Protocol: HA and HA-DVS-MBA (83.3% substitution) gels were prepared in a similar manner as described in Example 18 using 0.75% BDDE and a pH of 13.1. About 2 g of each gel were added to a vial and 105 uL of a 6% (w/w) lidocaine HCl in PBS solution was added to each sample. After mixing, the samples were autoclaved for 5 minutes at 121° C. Approx. 1.5 g of each gel was transferred to dialysis tubing (Aldon Corporation, IS13027, 6.4 mm×10 mm, cut-off: 12-14 kDa). […] The loaded dialysis tubing was placed in separate 45 ml PBS solutions and incubated at 37° C. under oscillating conditions. […] The lidocaine content was measured using HPLC. The percent release was determined by released amount divided by the initial amount added. The release of the lidocaine from the HA and HA-MBA gels was similar.
compound,measurement,setting,value
"CCN(CC)CC(=O)Nc1c(C)cccc1C [Lidocaine only, lidocaine HCl]",Cumulative Release (%),Time 0.5 hr,82%
same,Cumulative Release (%),Time 1 hr,87%
same,Cumulative Release (%),Time 1.5 hr,86%
same,Cumulative Release (%),Time 2 hr,84%
same,Cumulative Release (%),Time 3.5 hr,82%
